Assays:
Varroa mites = assay: Efficacy of BPQ B against Varroa mites on honeybees fed treated sucrose solution; type: in vivo; settings: summary statement
Experimental: Example 6 - Toxicity of BPQ B to Varroa mites on honeybees when fed treated sucrose solution
To estimate the percentage efficacy of BPQ at different concentrations in sucrose solution
A total of 20 newly emerged Varroa infested bees were placed in hoarding cages. The cages were prepared as described in Section 1.0, except that the air vents were reduced in size using parafilm to prevent the Varroa mites escaping during the test period. The mean(±se) number of mites per 20 bees was estimated prior to commencement of the experiment and an additional 5 mites per cage were added. (mean±se = 10.6±0.33). This was carried out by collecting adult female mite from drone pupae, placing them in an eppendorf tube and then releasing them into the cages.
The treatment solution was made by dissolving BPQ B in solvent, followed by two aqueous serial dilutions producing a concentration of 500µg/mL and 5 µg/mL. From the latter, further serial dilutions were carried with sucrose solution producing the following concentrations: • 0.5µg/mL. (C1-C3) • 0.05µg/mL. (D1-D3) • 0.005µg/mL. (E1-E3) • 0.0005µg/mL. (F1-F3) • 0.00005µg/mL (G1-G3)
Three replicates were established at each concentration plus a control group which were only fed sugar syrup. All cages were placed in the incubator at 32°C and monitored on a daily basis for the number of mites and number of bees knocked down. At the end of five day treatment period, the percentage efficacy of the treatment was estimated by treating bees in all cages with Apistan (Trade Mark of Vita (Europe) Ltd. Apistan contains fluvalinate which is a synthetic pyrethroid. % efficacy = mites knocked from treatment/total mites (treatment+Apistan)*100 [formula]

honeybee larvae = assay: Toxicity of BPQ B to honeybee larvae when fed treated syrup; type: in vivo, Apis mellifera; settings: colony fed treated syrup
Description: To measure the effect of treatment on developing larvae when fed syrup treated with BPQ powder, BPQ B, dissolved in the solvent (N-methyl pyrollidone) and diluted in an aqueous solution.
Apidae boxes were used to raise young queens and when virgin queens started to lay an area 6cm x 3cm were marked and missing cells were noted. The miniature colony was fed treated syrup, which was made by dissolving BPQ B powder in solvent, followed by serial dilutions using a sucrose solution (2 parts sugar: 1 part water). The concentrations administered are given below. Two replicates were carried out for the product, while 1 colony (apidae) was used for each of the solvent concentrations.

With `CC(C)(C)[C@H]1CC[C@H](CC2=C(O)C(=O)c3ccccc3C2=O)CC1` [BPQ, buparvaquone] the “effective, application via bee feed route” value (Varroa mites) was 82% and the “development of developing larvae” value (honeybee larvae) was “no negative effects”.

From patent EP2433624B1, “Use of buparvaquone for controlling mites parasitising honeybees” (Bimeda International Pharmaceuticals Limited, priority 2010, dated 2012)
